The subject of one series is VCAM-1. Nature of the series: In Vitro VCAM-1 Assay (TNF-α stimulated HAEC or HPAEC, cell ELISA). It counts as cell-based, human. The following applies: Homo sapiens, 16 h, TNF-α (1 ng/ml) stimulated HAEC or HPAEC, approximately 16 hours. The method, then: Cell Culture and compound dosing: Cultured primary human aortic (HAEC) or pulmonary (HPAEC) endothelial cells were obtained from Clonetics, Inc., and were used below passage 9. Cells were seeded in 96 well plates such that they would reach 90–95% confluency by the following day. On the following day the cells were stimulated with TNF-α (1 ng/ml) in the presence or absence of compounds dissolved in DMSO such that the final concentration of DMSO is 0.25% or less. To establish a dose curve for each compound, four concentrations in 2- to 5-fold increments were used. Cells were exposed to TNF-α and compounds for approximately 16 hours. The next day the cells were examined under microscope to score for visual signs of toxicity or cell stress.
Following 16 hr exposure to TNF-α and compound the media was discarded and the cells were washed once with Hanks Balanced Salt Solution (HBSS)/Phosphate buffered saline (PBS) (1:1). Primary antibodies against VCAM-1 (0.25 μg/ml in HBSS/PBS+5% FBS) were added and incubated for 30–60 minutes at 37° C. Cells were washed with HBSS/PBS three times, and secondary antibody Horse Radish Peroxidase (HRP)-conjugated goat anti-mouse IgG (1:500 in HBSS/PBS+5% FBS) were added and incubated for 30 minutes at 37° C. Cells were washed with HBSS/PBS four time and TMB substrate were added and incubated at room temperature in the dark until there was adequate development of blue color. The length of time of incubation was typically 5–15 minutes. 2N sulfuric acid was added to stop the color development and the data was collected by reading the absorbance on a BioRad ELISA plate reader at OD 450 nm. The results are expressed as IC50 values (the concentration (micromolar) of compound required to inhibit 50% of the maximal response of the control sample stimulated by TNF-α only).

As usually defined, the IC50 is the point on the concentration scale where inhibition reaches its midpoint. A high value points to lower potency. As usually defined, the melting point is the temperature of the solid-liquid transition.

Some results are limits rather than exact numbers.

The compound `COc1cc(OC)c(-c2cc3ccccc3s2)cc1/C=C/C(=O)c1ccc(N)cc1` [Example 13, 1-(4-Amino-phenyl)-3E-(5-benzo[b]thiophen-2-yl-2,4-dimethoxy-phenyl)-propenone] displayed a melting point of 98 to 104 °C. Besides, in the series on VCAM-1, the concentration for half-maximal inhibition (IC50) is under 5 µM.

`COc1cc(/C=C/C(=O)c2ccc(NS(C)(=O)=O)cc2)cc(-c2cccs2)c1OC` [Example 14, N-{4-[3E-(3,4-Dimethoxy-5-thiophen-2-yl-phenyl)-acryloyl]-phenyl}-methanesulfonamide] registered a melting point of 71 to 75 °C. The compound also yielded an IC50 in the series on VCAM-1 of under 1 µM.

In the case of `CCOC(=O)CNC(=O)Nc1ccc(C(=O)/C=C/c2ccc(-c3cccs3)cc2)cc1` [Example 15, (3-{4-[3E-(4-Thiophen-2-yl-phenyl)-acryloyl]-phenyl}-ureido)-acetic acid ethyl ester], the melting point fell in the range of 209 to 212 °C. In addition, the IC50 in the series on VCAM-1 is over 10 µM.

On to `CCOC(=O)CNC(=O)N(C(=O)NCC(=O)OCC)c1ccc(C(=O)/C=C/c2cc(OC)c(OC)c(-c3cccs3)c2)cc1` [Example 16, (3-[Ethoxycarbonylmethylaminocarbonyl]-3-{4-[3E-(3,4-dimethoxy-5-thiophen-2-yl-phenyl)-acryloyl]-phenyl}-ureido)-acetic acid ethyl ester], for which the melting point was in the range of 83 to 86 °C. In the series on VCAM-1, this compound showed a half-maximal inhibitory concentration (IC50) of under 5 µM.

With `O=C(O)c1ccc(/C=C/C(=O)c2ccc(-c3cccs3)cc2)cc1` [Example 18, 4-[3-{4-(thien-2-yl)-phenyl}-3-oxo-E-propenyl]-benzoic acid], the melting point fell in the range of 260 to 265 °C. Moreover, the IC50 in the series on VCAM-1 was under 5 µM.

`COc1cc(-c2cccs2)ccc1C(=O)/C=C/c1ccc(C(=O)O)cc1` [Example 19, 4-[3-(2-Methoxy-4-thiophen-2-yl-phenyl)-3-oxo-E-propenyl]-benzoic acid] yielded a melting point of 193 to 195 °C. In the series on VCAM-1, this compound came in with an IC50 of under 1 µM.

Take `O=C(O)c1ccc(C(=O)/C=C/c2ccc(N3CCCC3)c(-c3cccs3)c2)cc1` [Example 20, 4-[3E-(4-Pyrrolidin-1-yl-3-thiophen-2-yl-phenyl)-acryloyl]-benzoic acid]: the melting point is 212 to 214 °C (dec.). Also, the IC50 with VCAM-1 was over 10 µM.

Take `O=C(O)c1ccc(C(=O)/C=C/c2ccc(F)c(-c3cccs3)c2)cc1` [Example 21, 4-[3E-{4-Fluoro-3-(thiophen-2-yl)-phenyl}-acryloyl]-benzoic acid]: the melting point was in the range of 242 to 244 °C. Also, in the series with VCAM-1, the IC50 is under 5 µM.

Consider `O=C(/C=C/c1ccc(-c2cccs2)cc1)c1ccc(S)cc1` [Example 22, 1-(4-Mercapto-phenyl)-3E-(4-thiophen-2-yl-phenyl)-propenone], for which the melting point was > 110 °C (dec.). In the series with VCAM-1, this compound returned an IC50 of over 10 µM.

Regarding `CSc1ccc(C(=O)/C=C/c2ccc(-c3cccs3)cc2)cc1` [Example 24, 1-(4-Methylthiophenyl)-3E-(4-thiophen-2-yl-phenyl)-propenone], the melting point was 138 to 140 °C. The same compound yielded a half-maximal inhibitory concentration (IC50) with VCAM-1 of over 10 µM.

Regarding `NS(=O)(=O)c1ccc(C(=O)/C=C/c2ccc(-c3cccs3)cc2)cc1` [Example 26, 4-[3E-(4-Thiophen-2-yl-phenyl)-acryloyl]-benzenesulfonamide], the melting point was over 245 °C. Also, in the series with VCAM-1, the IC50 was over 10 µM.

`COc1cc(/C=C/C(=O)c2ccc3[nH]ccc3c2)cc(-c2cccs2)c1OC` [Example 27, 3E-(3,4-Dimethoxy-5-thiophen-2-yl-phenyl)-1-(1H-indol-5-yl)-propenone] yielded a melting point of 184.5 to 186 °C. In the series with VCAM-1, the half-maximal inhibitory concentration (IC50) was under 5 µM.

Compound `O=C(O)c1ccc(C(=O)/C=C/c2ccc(-c3cccs3)cc2F)cc1` [Example 30, 4-[3E-(2-Fluoro-4-thiophen-2-yl-phenyl)-acryloyl]-benzoic acid] gave a melting point of over 260 °C. In the series with VCAM-1, this compound had a 50% inhibitory concentration (IC50) of under 1 µM.
